From patent US10118902B2 (Sanford Burnham Prebys Medical Discovery Institute, priority 2014, dated 2018)

Biological target: neurotensin receptor 1 (NTR1) (Homo sapiens (Human), UniProt P30989)
Test: NTR1 dose response, high-content imaging beta-arrestin-GFP assay in NTR1-U2OS cells
Assay type: cell-based
Settings: read-out: EC50
Description: The cell lines utilized in the high-content imaging assays, which include the NTR1-, NTR2-, and GPR35-U2OS osteosarcomas, were obtained from the laboratory of Dr. Lawrence Barak at the Duke University Medical Center. The media used in the culture of the cell lines, as well as the assays themselves, consisted of Minimum Essential Medium (15-010-CM) and L-glutamine (25-005-CL) from Cellgro/Mediatech (Manassas, Va.), fetal bovine serum (SH30396.03) from Hyclone (Logan, Utah), penicillin-streptomycin solution (PS-20) from Omega Scientific in Tarzana, Calif., G418 (ant-gn-1) from Invivogen (San Diego, Calif.), and zeocin (R250-01) from Invitrogen (Carlsbad, Calif.). Cell lines were cultured in T225 tissue culture flasks (431082) supplied by Corning (Corning, N.Y.). Additional reagents employed include Dulbecco's Phosphate-Buffered Saline (DPBS) (21-031CV) from Cellgro/Mediatech, Trypsin-EDTA 0.05% (25300) from Invitrogen, paraformaldehyde (30528954) from Acros Organics (Geel, Belgium), Hoechst 33342 (H3570) from Invitrogen. The high-content assays were run in 1536-well plates (29326) supplied by Aurora Biotechnology (Poway, Calif.) and utilized aluminum plate seals (T592100) from E&K Scientific (Santa Clara, Calif.). […]
The high-content imaging based NTR1 primary screen in 1536-well format was utilized to assay the MLSMR library of chemical entities in the following manner. On day one, 4 uL of a cell suspension containing 350,000 NTR1-U2OS cells per mL is added to each well of a 1536-well assay plate. Cells are plated in MEM medium containing 2.5% Fetal Bovine Serum, 1% Penicillin/Streptomycin solution, 1% L-Glutamine, 400 ug/mL G418, and 200 ug/mL Zeocin. The assay plates are then incubated overnight at 37° C., under 5% CO2. Following the overnight incubation, a volume of 60 nL of the compounds at 2 mM in DMSO (final 20 μM, 1% DMSO) was transferred to columns 5-48 of the assay plates using a LabCyte Echo Liquid Handler. Next, 60 nL of DMSO were dispensed to columns 1-4, which served as the positive and neutral control wells. […] The assay plates were centrifuged on an Eppendorf 5810 centrifuge at 1000 rpm for 1 min to ensure even liquid levels in the wells of the assay plates. The assay plates were then returned to the incubator for 1 hour. Following the hour-long incubation at 37° C., the cells in each well were fixed with 4 uL of 6% paraformaldehyde added with a Multidrop Combi. The assay plates were centrifuged as before and incubated at room temperature for 1 hour. On the Kalypsys, plates were then aspirated down to 2.5 uL per well and washed twice with 11 uL per well of DPBS, followed by a final aspiration to 2.5 uL per well. On the Combi dispenser, 5 uL of 5 ug/mL Hoechst 33342 diluted in DPBS was added to each well of assay plates. The plates were again centrifuged as previously described, sealed, and incubated for at least 1 hour prior to being loaded on a PerkinElmer Opera QEHS.
Image acquisition was performed with a 45 plate capacity loader/stacker and the following settings: 40×0.6 NA air objective, acquisition camera set to 2-by-2 binning for an image size of 688 by 512 pixels, beta-arrestin-GFP acquired using 488 nm laser excitation and 540/75 nm emission filters, DAPI (nuclei) using 365 nm Xenon lamp excitation and 450/50 nm emission filters, 3 fields per well. Image analysis was performed using the Acapella Spot Detection Algorithm. For analysis settings and the metrics employed in the data analyses, please refer to supplemental information.
Compounds that were successfully confirmed in quadruplicate at 20 uM were then run in dose response in the primary assay. As with the single concentration hit confirmation, the assay was performed in an identical manner as the primary screen with the following modifications. […]

neurotensin receptor 1 (NTR1), sequence (P30989 whole entry, species assumed): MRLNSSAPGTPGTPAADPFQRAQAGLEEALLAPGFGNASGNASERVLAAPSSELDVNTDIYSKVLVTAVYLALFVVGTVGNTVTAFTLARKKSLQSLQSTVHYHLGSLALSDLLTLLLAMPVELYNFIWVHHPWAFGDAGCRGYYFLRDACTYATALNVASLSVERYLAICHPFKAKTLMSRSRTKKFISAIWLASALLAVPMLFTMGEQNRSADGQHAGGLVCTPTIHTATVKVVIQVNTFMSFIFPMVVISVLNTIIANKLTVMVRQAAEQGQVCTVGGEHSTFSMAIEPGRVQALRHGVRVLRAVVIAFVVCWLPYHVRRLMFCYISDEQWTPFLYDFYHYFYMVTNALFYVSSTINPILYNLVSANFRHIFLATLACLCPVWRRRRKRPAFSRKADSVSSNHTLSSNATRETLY

| SMILES | EC50 [nM] |
| --- | --- |
| COc1ccccc1C1CCN(c2nc(C3CC3)nc3ccc(N4CC[C@@H](N(C)C)C4)cc23)CC1 (stereo in doubt) [Example 91, (1-{2-cyclopropyl-4-[4-(2-methoxy-phenyl)-piperidin-1-yl]-quinazolin-6-yl}-pyrrolidin-3-yl)-dimethyl-amine] | 2000 to 10000 |
| COc1ccccc1N[C@@H]1CCN(c2nc(C3CC3)nc3ccc(N(C)CCO)cc23)C1 (stereo in doubt) [Example 153, 2-({2-cyclopropyl-4-[3-(2-methoxy-phenylamino)-pyrrolidin-1-yl]-quinazolin-6-yl}-methyl-amino)-ethanol] | > 10000 |
| COc1ccccc1C1CCN(c2nc(C3(F)CC3)nc3c(Cl)cc(N4CC[C@@H](O)C4)cc23)CC1 (stereo in doubt) [Example 202, 1-{8-Chloro-2-(1-fluoro-cyclopropyl)-4-[4-(2-methoxy-phenyl)-piperidin-1-yl]-quinazolin-6-yl}-pyrrolidin-3-ol] | 500 to 2000 |
| COc1ccccc1C1CCN(c2nc(C3(F)CC3)nc3c(Cl)cc(N4CC[C@H](O)C4)cc23)CC1 (stereo in doubt) [Example 203, 1-{8-Chloro-2-(1-fluoro-cyclopropyl)-4-[4-(2-methoxy-phenyl)-piperidin-1-yl]-quinazolin-6-yl}-pyrrolidin-3-ol] | 2000 to 10000 |
| CN(C)c1ccc2nc(C3CC3)nc(N3CCN(c4ccccc4N4CCC4)CC3)c2c1 [Example 1, {4-[4-(2-azetidin-1-yl-phenyl)-piperazin-1-yl]-2-cyclopropyl-quinazolin-6-yl}-dimethyl-amine] | 500 to 2000 |
| CCN(C)c1ccc2nc(C3CC3)nc(N3CCN(c4ccccc4N4CCC4)CC3)c2c1 [Example 2, {4-[4-(2-azetidin-1-yl-phenyl)-piperazin-1-yl]-2-cyclopropyl-quinazolin-6-yl}-ethyl-methyl-amine] | 500 to 2000 |
| CN(C)c1ccc2nc(C3CC3)nc(N3CCC(c4ccccc4N4CCC4)CC3)c2c1 [Example 3] | > 10000 |
| CCN(C)c1ccc2nc(C3CC3)nc(N3CCC(c4ccccc4N4CCC4)CC3)c2c1 [Example 4, {4-[4-(2-azetidin-1-yl-phenyl)-piperidin-1-yl]-2-cyclopropyl-quinazolin-6-yl}-ethyl-methyl-amine] | > 10000 |
| CN(C)CCN(C)c1ccc2nc(C3CC3)nc(N3CCC(c4ccccc4N4CCC4)CC3)c2c1 [Example 5, N-{4-[4-(2-azetidin-1-yl-phenyl)-piperidin-1-yl]-2-cyclopropyl-quinazolin-6-yl}-N,N′,N′-trimethyl-ethane-1,2-diamine] | 2000 to 10000 |
| CN(CCO)c1ccc2nc(C3CC3)nc(N3CCC(c4ccccc4N4CCC4)CC3)c2c1 [Example 6, 2-({4-[4-(2-azetidin-1-yl-phenyl)-piperidin-1-yl]-2-cyclopropyl-quinazolin-6-yl}-methyl-amino)-ethanol] | 500 to 2000 |
| COCCN(C)c1ccc2nc(C3CC3)nc(N3CCC(c4ccccc4N4CCC4)CC3)c2c1 [Example 7, {4-[4-(2-azetidin-1-yl-phenyl)-piperidin-1-yl]-2-cyclopropyl-quinazolin-6-yl}-(2-methoxy-ethyl)-methyl-amine] | 2000 to 10000 |
| CN(CCN1CCOCC1)c1ccc2nc(C3CC3)nc(N3CCC(c4ccccc4N4CCC4)CC3)c2c1 [Example 8, {4-[4-(2-azetidin-1-yl-phenyl)-piperidin-1-yl]-2-cyclopropyl-quinazolin-6-yl}-methyl-(2-morpholin-4-yl-ethyl)-amine] | 500 to 2000 |
| CN(CCN1CCCC1)c1ccc2nc(C3CC3)nc(N3CCC(c4ccccc4N4CCC4)CC3)c2c1 [Example 9, {4-[4-(2-azetidin-1-yl-phenyl)-piperidin-1-yl]-2-cyclopropyl-quinazolin-6-yl}-methyl-(2-pyrrolidin-1-yl-ethyl)-amine] | > 10000 |
| CN(C)c1ccccc1C1CCN(c2nc(C3CC3)nc3ccc(N(C)CCO)cc23)CC1 [Example 10, 2-({2-cyclopropyl-4-[4-(2-dimethylamino-phenyl)-piperidin-1-yl]-quinazolin-6-yl}-methyl-amino)-ethanol] | 2000 to 10000 |
| COCCN(C)c1ccc2nc(C3CC3)nc(N3CCC(c4ccccc4N(C)C)CC3)c2c1 [Example 11, {2-cyclopropyl-4-[4-(2-dimethylamino-phenyl)-piperidin-1-yl]-quinazolin-6-yl}-(2-methoxy-ethyl)-methyl-amine] | 2000 to 10000 |
| CN(C)c1ccccc1C1CCN(c2nc(C3CC3)nc3ccc(N(C)CCN4CCOCC4)cc23)CC1 [Example 12, {2-Cyclopropyl-4-[4-(2-dimethylamino-phenyl)-piperidin-1-yl]-quinazolin-6-yl}-methyl-(2-morpholin-4-yl-ethyl)-amine] | 2000 to 10000 |
| CN(C)c1ccccc1C1CCN(c2nc(C3CC3)nc3ccc(N(C)CCN4CCCC4)cc23)CC1 [Example 13, {2-cyclopropyl-4-[4-(2-dimethylamino-phenyl)-piperidin-1-yl]-quinazolin-6-yl}-methyl-(2-pyrrolidin-1-yl-ethyl)-amine] | 2000 to 10000 |
| CN(C)CCN(C)c1ccc2nc(C3CC3)nc(N3CCC(c4ccccc4N(C)C)CC3)c2c1 [Example 14, N-{2-cyclopropyl-4-[4-(2-dimethylamino-phenyl)-piperidin-1-yl]-quinazolin-6-yl}-N,N′,N′-trimethyl-ethane-1,2-diamine] | 2000 to 10000 |
| COc1ccccc1C1CCN(c2nc(C3(F)CC3)nc3ccc(N(C)CCO)cc23)CC1 [Example 15, 2-({2-(1-Fluoro-cyclopropyl)-4-[4-(2-methoxy-phenyl)-piperidin-1-yl]-quinazolin-6-yl}-methyl-amino)-ethanol] | < 500 |
| COCCN(C)c1ccc2nc(C3(F)CC3)nc(N3CCC(c4ccccc4OC)CC3)c2c1 [Example 16, {2-(1-fluoro-cyclopropyl)-4-[4-(2-methoxy-phenyl)-piperidin-1-yl]-quinazolin-6-yl}-(2-methoxy-ethyl)-methyl-amine] | 500 to 2000 |
| COc1ccccc1C1CCN(c2nc(C3(F)CC3)nc3ccc(N(C)CCN4CCOCC4)cc23)CC1 [Example 17, {2-(1-fluoro-cyclopropyl)-4-[4-(2-methoxy-phenyl)-piperidin-1-yl]-quinazolin-6-yl}-methyl-(2-morpholin-4-yl-ethyl)-amine] | 500 to 2000 |
| COc1ccccc1C1CCN(c2nc(C3(F)CC3)nc3ccc(N(C)C)cc23)CC1 [Example 18, {2-(1-fluoro-cyclopropyl)-4-[4-(2-methoxy-phenyl)-piperidin-1-yl]-quinazolin-6-yl}-dimethyl-amine] | 500 to 2000 |
| COc1ccccc1C1CCN(c2nc(C3(N(C)C)CC3)nc3ccc(N(C)C)cc23)CC1 [Example 19, {2-(1-dimethylamino-cyclopropyl)-4-[4-(2-methoxy-phenyl)-piperidin-1-yl]-quinazolin-6-yl}-dimethyl-amine] | > 10000 |
| CCCN(C)c1ccc2nc(C3(F)CC3)nc(N3CCC(c4ccccc4OC)CC3)c2c1 [Example 20, {2-(1-fluoro-cyclopropyl)-4-[4-(2-methoxy-phenyl)-piperidin-1-yl]-quinazolin-6-yl}-methyl-propyl-amine] | 500 to 2000 |
| CCCN(C)c1ccc2nc(C3(N(C)CCC)CC3)nc(N3CCC(c4ccccc4OC)CC3)c2c1 [Example 21, {4-[4-(2-methoxy-phenyl)-piperidin-1-yl]-2-[1-(methyl-propyl-amino)-cyclopropyl]-quinazolin-6-yl}-methyl-propyl-amine] | > 10000 |
